US12358943B1, “Method of synthesizing testosterone-based thiazolidinone derivatives” (IMAM MOHAMMAD IBN SAUD ISLAMIC UNIVERSITY, priority 2025, dated 2025)

Assays:
Type in all cases: cell-based
[1] = tested on: Staphylococcus aureus ATCC 6538-P; test: Disk diffusion agar antimicrobial activity, S. aureus; conditions: 25 mg/ml, 37° C. for 24 hours, mean values; for zone of inhibition at 25000 µg/mL: Staphylococcus aureus, ATCC6538, 24 h, read-out: Bacterial and fungal growth inhibition zone diameter (mm), S. aureus
Protocol: (§1) As used herein, “inhibition zone diameter” refers to a measurement that indicates how effective an antimicrobial is against a bacterium. The diameter of the zone of inhibition can be used to determine the level of sensitivity of the bacterium to the antimicrobial. In laboratory testing, such as the disk diffusion method (Kirby-Bauer test), a paper disk impregnated with the antimicrobial agent is placed on an agar plate inoculated with the microorganism. After incubation, the diameter of the clear zone (inhibition zone) around the disk is measured.
(§2) The reaction conditions and mechanisms are described in subsequent examples. The successful fabrication of the testosterone-based thiazolidinone derivatives was confirmed by different analytical techniques. The antimicrobial activity of newly prepared testosterone-based thiazolidinone derivatives was evaluated against various microorganisms, including Staphylococcus aureus ATCC 6538-P, Escherichia coli ATCC 25933, Candida albicans ATCC 10231, and Aspergillus niger NRRL-A326.
(§3) The antimicrobial activity of the synthesized testosterone-based thiazolidinone derivatives (compound (I), compound (II), and compound (III)) were assessed utilizing the disk diffusion agar methodology. Four representative microbial strains were selected for this study: Staphylococcus aureus ATCC 6538-P (Gram-positive), Escherichia coli ATCC 25933 (Gram-negative), Candida albicans ATCC 10231, and Aspergillus niger NRRL-A326. Nutrient agar plates were uniformly inoculated with 0.1 mL of a cell suspension at a density of […] to 10^6 cells/mL for both bacterial and yeast cultures. Following inoculation, samples were introduced onto the agar plates. The plates were subsequently incubated at refrigeration temperature (4° C.) for 2 to 4 hours to enhance the diffusion of the antimicrobial agents. Thereafter, the plates were incubated at 37° C. for 24 hours for bacterial growth and at 30° C. for 48 hours for yeast and fungal growth, maintaining an upright orientation to maximize the growth of the microorganisms. The antimicrobial activity of the testosterone-based thiazolidinone derivatives was quantified by measuring the diameter of the zone of inhibition, which was reported in millimeters (mm). The concentration of the tested testosterone-based thiazolidinone derivatives was 25 mg/ml. This experimental protocol was replicated multiple times, and the mean values of the observed readings were recorded.

[2] = tested on: Escherichia coli ATCC 25933; test: Disk diffusion agar antimicrobial activity, E. coli; conditions: 25 mg/ml, 37° C. for 24 hours, mean values; for zone of inhibition at 25000 µg/mL: Escherichia coli, ATCC25933, 24 h, read-out: Bacterial and fungal growth inhibition zone diameter (mm), E. coli
Protocol: as §1, §2, §3

[3] = tested on: Candida albicans ATCC 10231; test: Disk diffusion agar antimicrobial activity, C. albicans; conditions: 25 mg/ml, 30° C. for 48 hours, mean values; for zone of inhibition at 25000 µg/mL: Candida albicans, ATCC10231, 48 h, read-out: Bacterial and fungal growth inhibition zone diameter (mm), C. albicans
Protocol: as §1, §2, §3

[4] = tested on: Aspergillus niger NRRL-A326; test: Disk diffusion agar antimicrobial activity, A. niger; conditions: 30° C. for 48 hours, mean values; for Bacterial and fungal growth inhibition zone diameter (mm), A. niger: 25 mg/ml; for zone of inhibition at 25000 µg/mL: Aspergillus niger, NRRLA326, 25 mg/ml, read-out: Bacterial and fungal growth inhibition zone diameter (mm), A. niger
Protocol: as §1, §2, §3

[5] = listed as compound III where Ar is 4-ClC6H4
[6] = listed as compound III where Ar is CH2C6H4
[7] = listed as compound III where Ar is C6H5

## CC12CCC(=NN=C3NC(=O)C(CC(=O)Nc4ccc(Cl)cc4)S3)C=C1CCC1C2CCC2(C)C(O)CCC12 (centres unmarked) [Compound III Ar = 4-ClC6H4]
[1]
  Bacterial and fungal growth inhibition zone diameter (mm), S. aureus: 38 mm
[1]; [5]
  Bacterial and fungal growth inhibition zone diameter (mm), S. aureus: at least 38 mm
[2]
  Bacterial and fungal growth inhibition zone diameter (mm), E. coli: 39 mm
[2]; [5]
  Bacterial and fungal growth inhibition zone diameter (mm), E. coli: at least 39 mm
[3]
  Bacterial and fungal growth inhibition zone diameter (mm), C. albicans: 41 mm
[3]; [5]
  Bacterial and fungal growth inhibition zone diameter (mm), C. albicans: at least 41 mm
[4]
  Bacterial and fungal growth inhibition zone diameter (mm), A. niger: 43 mm
[4]; [5]
  Bacterial and fungal growth inhibition zone diameter (mm), A. niger: at least 43 mm

## CC12CCC(=NN=C3NC(=O)C(CC(=O)NCc4ccccc4)S3)C=C1CCC1C2CCC2(C)C(O)CCC12 (centres unmarked) [Compound III Ar = CH2C6H4]
[1]
  Bacterial and fungal growth inhibition zone diameter (mm), S. aureus: 19 mm
[1]; [6]
  Bacterial and fungal growth inhibition zone diameter (mm), S. aureus: at least 19 mm
[2]
  Bacterial and fungal growth inhibition zone diameter (mm), E. coli: 17 mm
[2]; [6]
  Bacterial and fungal growth inhibition zone diameter (mm), E. coli: at least 17 mm
[3]
  Bacterial and fungal growth inhibition zone diameter (mm), C. albicans: 21 mm
[3]; [6]
  Bacterial and fungal growth inhibition zone diameter (mm), C. albicans: at least 21 mm
[4]
  Bacterial and fungal growth inhibition zone diameter (mm), A. niger: 44 mm
[4]; [6]
  Bacterial and fungal growth inhibition zone diameter (mm), A. niger: at least 44 mm

## CC12CCC(=NN=C3NC(=O)C(CC(=O)Nc4ccccc4)S3)C=C1CCC1C2CCC2(C)C(O)CCC12 (centres unmarked) [Compound III Ar = C6H5]
[1]
  Bacterial and fungal growth inhibition zone diameter (mm), S. aureus: 35 mm
[1]; [7]
  Bacterial and fungal growth inhibition zone diameter (mm), S. aureus: at least 35 mm
[2]
  Bacterial and fungal growth inhibition zone diameter (mm), E. coli: 32 mm
[2]; [7]
  Bacterial and fungal growth inhibition zone diameter (mm), E. coli: at least 32 mm
[3]
  Bacterial and fungal growth inhibition zone diameter (mm), C. albicans: 36 mm
[3]; [7]
  Bacterial and fungal growth inhibition zone diameter (mm), C. albicans: at least 36 mm
[4]
  Bacterial and fungal growth inhibition zone diameter (mm), A. niger: 37 mm
[4]; [7]
  Bacterial and fungal growth inhibition zone diameter (mm), A. niger: at least 37 mm

## C[C@]12CC[C@H]3[C@@H](CCC4=C/C(=N/NC(N)=S)CC[C@@]43C)[C@@H]1CC[C@@H]2O [Compound I]
[1]
  zone of inhibition at 25000 µg/mL: 0 mm
[2]
  zone of inhibition at 25000 µg/mL: 0 mm
[3]
  zone of inhibition at 25000 µg/mL: 0 mm
[4]
  zone of inhibition at 25000 µg/mL: 0 mm

## COC(=O)/C=C1/S/C(=N\N=C2\C=C3CC[C@H]4[C@@H]5CC[C@H](O)[C@@]5(C)CC[C@@H]4[C@@]3(C)CC2)NC1=O [Compound II]
[1]
  Bacterial and fungal growth inhibition zone diameter (mm), S. aureus: 29 mm
  zone of inhibition at 25000 µg/mL: ≥ 29 mm
[2]
  Bacterial and fungal growth inhibition zone diameter (mm), E. coli: 26 mm
  zone of inhibition at 25000 µg/mL: ≥ 26 mm
[3]
  Bacterial and fungal growth inhibition zone diameter (mm), C. albicans: 29 mm
  zone of inhibition at 25000 µg/mL: ≥ 29 mm
[4]
  zone of inhibition at 25000 µg/mL: 0 mm
